# Data reported in patent publication US20240391862A1, “(1,4,5-TRISUBSTITUTED-1H-PYRAZOL-3-YL)OXY-2-ALKOXY ALKYL ACIDS AND THEIR DERIVATIVES, THEIR SALTS AND THEIR USE AS HERBICIDAL AGENTS” (Bayer AKtiengesellschaft, priority 2021, published 2024).
# Experiments:
# [1] = system: TRZAS; test: Post-emergence herbicidal effect and crop plant compatibility, greenhouse pot test; type: in vivo, Triticum aestivum; conditions: for percent crop injury (phytotoxicity) to wheat, post-emergence at 20 g/ha: Triticum aestivum, 504 h, read-out: Post-emergence effect at 20 g/ha against TRZAS in %; for Post-emergence effect against TRZAS: visual rating about 3 weeks after treatment, crop plant
# From the text: • ALOMY: Alopecurus myosuroides SETVI: Setaria viridis • AVEFA: Avena fatua POLCO: Fallopia convolvulus • AMARE: Amaranthus retroflexus ECHCG: Echinochloa crus-galli • LOLRJ: Lolium rigidum STEME: Stellaria media • VERPE: Veronica persica MATIN: Tripleurospermum inodorum • DIGSA: Digitaria sanguinalis ABUTH: Abutylon threophrasti • TRZAS: Triticum aestivum VIOTR: Viola tricolor • BRSNW: Brassica napus ZEAMX: Zea mays • PHBPU: Ipomoea purpurea GLXMA: Glycine max • ORYSA: Oryza sativa HORMU: Hordeum murinum
# Seeds of monocotyledonous and dicotyledonous weeds and crop plants are placed in sandy loam in plastic or organic planting pots, covered with soil and cultivated in a greenhouse under controlled growth conditions. 2 to 3 weeks after sowing, the trial plants are treated at the one-leaf stage. The compounds of the invention, formulated in the form of wettable powders (WP) or as emulsion concentrates (EC), are then sprayed onto the green parts of the plants as aqueous suspension or emulsion with addition of 0.5% additive at a water application rate of 600 l/ha (converted). After the test plants have been kept in the greenhouse under optimum growth conditions for about 3 weeks, the activity of the preparations is rated visually in comparison to untreated controls. For example, 100% activity=the plants have died, 0% activity=like control plants.
# Tables 20a to 38c below show the effects/crop compatibilities of selected compounds of the general formula (I) on various harmful plants at an application rate corresponding to 20 to 320 g/ha, which were obtained by the trial procedure specified above.
# [2] = system: ZEAMX; test: as above; type: in vivo, Zea mays; conditions: one-leaf stage, rated visually after about 3 weeks vs untreated controls; for plant injury at 20 g/ha / plant injury at 80 g/ha / plant injury at 320 g/ha: Zea mays, 504 h; for plant injury at 20 g/ha: read-out: Post-emergence effect at 20 g/ha against ZEAMX in %; for plant injury at 80 g/ha: read-out: Post-emergence effect at 80 g/ha against ZEAMX in %; for plant injury at 320 g/ha: read-out: Post-emergence effect at 320 g/ha against ZEAMX in %
# In short: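 Visual % activity scored roughly 3 weeks post-spray against untreated plants, where 100% means death and 0% equals control. Plants were treated at the one-leaf stage, 2 to 3 weeks after sowing in sandy loam, at 20 to 320 g/ha.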
# [3] = system: ABUTH; test: Post-emergence herbicidal effect, greenhouse pot test; type: in vivo, Abutilon theophrasti; conditions: visual rating about 3 weeks after treatment
# In short: (§1)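 Greenhouse pot plants in sandy loam receive a one-leaf-stage spray at 20 to 320 g/ha. Activity is assessed visually around 3 weeks afterwards on a 0–100% scale, where 100% means the plants have died.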
# [4] = system: VIOTR; test: as above; type: in vivo, Viola tricolor
# In short: as §1
# [5] = system: DIGSA; test: as above; type: in vivo, Digitaria sanguinalis; conditions: visual rating about 3 weeks after treatment
# In short: as §1
# [6] = system: AVEFA; test: as above; type: in vivo, Avena fatua; conditions: visual rating about 3 weeks after treatment
# In short: as §1
# [7] = system: ALOMY; test: as above; type: in vivo, Alopecurus myosuroides; conditions: visual rating about 3 weeks after treatment
# In short: as §1
# [8] = system: AMARE; test: as above; type: in vivo, Amaranthus retroflexus; conditions: 320 g/ha, visual rating about 3 weeks after treatment
# In short: as §1
# [9] = system: LOLRI; test: as above; type: in vivo, Lolium rigidum
# In short: as §1
# [10] = system: VERPE; test: as above; type: in vivo, Veronica persica
# In short: as §1
# [11] = system: PHBPU; test: as above; type: in vivo, Ipomoea purpurea
# In short: as §1
# [12] = system: SETVI; test: as above; type: in vivo, Setaria viridis
# In short: as §1
# [13] = system: POLCO; test: as above; type: in vivo, Fallopia convolvulus
# In short: as §1
# [14] = system: ECHCG; test: as above; type: in vivo, Echinochloa crus-galli
# In short: as §1
# [15] = system: KCHSC; test: as above; type: in vivo
# In short: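 Visual rating of activity against untreated plants (100% = plants died, 0% = no effect), done about 3 weeks after treatment. Compounds applied at 20–320 g/ha as aqueous spray (600 l/ha, 0.5% additive) from WP or EC formulations onto one-leaf-stage plants grown in sandy loam under greenhouse conditions.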
# [16] = system: MATIN; test: as above; type: in vivo, Tripleurospermum inodorum
# In short: as §1
# [17] = 20 g/ha, one-leaf stage, rated visually after about 3 weeks vs untreated controls
smiles,measurement,setting,value
CCOC(Oc1nn(-c2ccccc2F)c(-c2ccc(F)nc2)c1Cl)C(=O)O (centres unmarked) [Example I-52],"percent crop injury (phytotoxicity) to wheat, post-emergence at 20 g/ha",[1]; [17],0%
same,plant injury at 20 g/ha,[2]; 20 g/ha,0%
same,plant injury at 80 g/ha,[2]; 80 g/ha,0%
same,plant injury at 320 g/ha,[2],0%
COC(Oc1nn(-c2ncccc2F)c(-c2cncc(F)c2)c1C1CC1)C(=O)O (centres unmarked) [Example I-68],pest or weed control at 80 g/ha,"[3]; Abutilon theophrasti, 504 h, 80 g/ha, read-out: Post-emergence effect against ABUTH",80%
same,pest or weed control at 320 g/ha,"[3]; Abutilon theophrasti, 504 h, 320 g/ha, read-out: Post-emergence effect against ABUTH",90%
same,pest or weed control at 80 g/ha,"[4]; Viola tricolor, 504 h, 80 g/ha, read-out: Post-emergence effect against VIOTR in %",90%
same,pest or weed control at 320 g/ha,"[4]; Viola tricolor, 504 h, 320 g/ha, read-out: Post-emergence effect against VIOTR in %",90%
same,pest or weed control at 320 g/ha,"[5]; Digitaria sanguinalis, 504 h, 320 g/ha, read-out: Post-emergence effect against DIGSA",90%
same,pest or weed control at 80 g/ha,"[6]; Avena fatua, 504 h, 80 g/ha, read-out: Post-emergence effect against AVEFA",90%
same,pest or weed control at 320 g/ha,"[6]; Avena fatua, 504 h, 320 g/ha, read-out: Post-emergence effect against AVEFA",90%
same,pest or weed control at 80 g/ha,"[7]; Alopecurus myosuroides, 504 h, 80 g/ha, read-out: Post-emergence effect against ALOMY",90%
same,pest or weed control at 320 g/ha,"[7]; Alopecurus myosuroides, 504 h, 320 g/ha, read-out: Post-emergence effect against ALOMY",90%
same,pest or weed control at 320 g/ha,"[8]; Amaranthus retroflexus, 504 h, read-out: Post-emergence effect against AMARE",80%
same,pest or weed control at 320 g/ha,"[9]; Lolium rigidum, 504 h, 320 g/ha, read-out: Post-emergence effect against LOLRI in %",90%
same,plant injury at 20 g/ha,[2]; 20 g/ha,0%
same,pest or weed control at 80 g/ha,"[10]; Veronica persica, 504 h, 80 g/ha, read-out: Post-emergence effect against VERPE in %",90%
same,pest or weed control at 320 g/ha,"[10]; Veronica persica, 504 h, 320 g/ha, read-out: Post-emergence effect against VERPE in %",90%
same,pest or weed control at 80 g/ha,"[11]; Ipomoea purpurea, 504 h, 80 g/ha, read-out: Post-emergence effect against PHBPU in %",90%
same,pest or weed control at 320 g/ha,"[11]; Ipomoea purpurea, 504 h, 320 g/ha, read-out: Post-emergence effect against PHBPU in %",90%
same,pest or weed control at 80 g/ha,"[12]; Setaria viridis, 504 h, 80 g/ha, read-out: Post-emergence effect against SETVI in %",90%
same,pest or weed control at 320 g/ha,"[12]; Setaria viridis, 504 h, 320 g/ha, read-out: Post-emergence effect against SETVI in %",90%
same,pest or weed control at 80 g/ha,"[13]; Fallopia convolvulus, 504 h, 80 g/ha, read-out: Post-emergence effect against POLCO in %",80%
same,pest or weed control at 320 g/ha,"[13]; Fallopia convolvulus, 504 h, 320 g/ha, read-out: Post-emergence effect against POLCO in %",80%
same,pest or weed control at 20 g/ha,"[14]; Echinochloa crus-galli, 504 h, 20 g/ha, visual rating about 3 weeks after treatment, read-out: Post-emergence effect against ECHCG",80%
same,pest or weed control at 80 g/ha,"[14]; Echinochloa crus-galli, 504 h, 80 g/ha, read-out: Post-emergence effect against ECHCG in %",90%
same,pest or weed control at 320 g/ha,"[14]; Echinochloa crus-galli, 504 h, 320 g/ha, read-out: Post-emergence effect against ECHCG in %",90%
same,Post-emergence effect against KCHSC in %,[15]; 20 g/ha,90%
same,pest or weed control at 80 g/ha,"[15]; 504 h, 80 g/ha, read-out: Post-emergence effect against KCHSC in %",90%
same,pest or weed control at 320 g/ha,"[15]; 504 h, 320 g/ha, read-out: Post-emergence effect against KCHSC in %",90%
same,pest or weed control at 80 g/ha,"[16]; Tripleurospermum inodorum, 504 h, 80 g/ha, read-out: Post-emergence effect against MATIN in %",80%
same,pest or weed control at 320 g/ha,"[16]; Tripleurospermum inodorum, 504 h, 320 g/ha, read-out: Post-emergence effect against MATIN in %",90%
COC(Oc1nn(-c2cnccn2)c(-c2ccc(F)nc2)c1Br)C(=O)O (centres unmarked) [Example I-43],"percent crop injury (phytotoxicity) to wheat, post-emergence at 20 g/ha",[1]; [17],0%
same,plant injury at 20 g/ha,[2]; 20 g/ha,0%
same,plant injury at 80 g/ha,[2]; 80 g/ha,0%
COC(=O)C(OC)Oc1nn(-c2cccc(C)c2F)c(-c2ccnc(F)c2)c1Br (centres unmarked) [Example I-115],Post-emergence effect against ABUTH,[3]; 320 g/ha,80%
same,Post-emergence effect against AVEFA,[6]; 320 g/ha,80%
same,Post-emergence effect at 20 g/ha against TRZAS in %,[1]; [17],0%
same,Post-emergence effect against TRZAS,[1]; 80 g/ha,10%
same,Post-emergence effect against TRZAS,[1]; 320 g/ha,20%
same,Post-emergence effect against VERPE in %,[10]; 320 g/ha,80%
same,Post-emergence effect against PHBPU in %,[11]; 320 g/ha,80%
same,Post-emergence effect against SETVI in %,[12]; 320 g/ha,90%
same,Post-emergence effect against ECHCG in %,[14]; 320 g/ha,90%
"COC(=O)CCOC(=O)C(OC)Oc1nn(-c2ccccc2F)c(-c2ccc(F)nc2)c1C1CC1 (single isomer, unassigned) [Example I-75]",Post-emergence effect against ABUTH,[3]; 20 g/ha,80%
same,Post-emergence effect against ABUTH,[3]; 80 g/ha,80%
same,Post-emergence effect against ABUTH,[3]; 320 g/ha,90%
same,Post-emergence effect against VIOTR in %,[4]; 80 g/ha,80%
same,Post-emergence effect against VIOTR in %,[4]; 320 g/ha,90%
same,Post-emergence effect against DIGSA,[5]; 80 g/ha,80%
same,Post-emergence effect against DIGSA,[5]; 320 g/ha,80%
same,Post-emergence effect against AVEFA,[6]; 320 g/ha,90%
same,Post-emergence effect against ALOMY,[7]; 320 g/ha,80%
same,Post-emergence effect against AMARE,[8],90%
same,Post-emergence effect against LOLRI in %,[9]; 80 g/ha,80%
same,Post-emergence effect against LOLRI in %,[9]; 320 g/ha,90%
same,Post-emergence effect at 20 g/ha against ZEAMX in %,[2]; 20 g/ha,0%
same,Post-emergence effect at 80 g/ha against ZEAMX in %,[2]; 80 g/ha,0%
same,Post-emergence effect against VERPE in %,[10]; 80 g/ha,80%
same,Post-emergence effect against VERPE in %,[10]; 320 g/ha,90%
same,Post-emergence effect against PHBPU in %,[11]; 80 g/ha,80%
same,Post-emergence effect against PHBPU in %,[11]; 320 g/ha,90%
same,Post-emergence effect against SETVI in %,[12]; 80 g/ha,80%
same,Post-emergence effect against SETVI in %,[12]; 320 g/ha,90%
same,Post-emergence effect against POLCO in %,[13]; 320 g/ha,80%
same,Post-emergence effect against ECHCG in %,[14]; 80 g/ha,90%
same,Post-emergence effect against ECHCG in %,[14]; 320 g/ha,90%
same,Post-emergence effect against KCHSC in %,[15]; 320 g/ha,90%
same,Post-emergence effect against MATIN in %,[16]; 80 g/ha,80%
same,Post-emergence effect against MATIN in %,[16]; 320 g/ha,80%
COC(Oc1nn(-c2ncccc2F)c(-c2ccc(F)nc2)c1Cl)C(=O)O (centres unmarked) [Example I-44],"percent crop injury (phytotoxicity) to wheat, post-emergence at 20 g/ha",[1]; [17],0%
same,plant injury at 20 g/ha,[2]; 20 g/ha,0%
same,plant injury at 80 g/ha,[2]; 80 g/ha,0%
same,plant injury at 320 g/ha,[2],0%
